# From patent US9726663B2, “Method of identifying or evaluating synergistic combinations of actives and compositions containing the same” (The Procter & Gamble Company, priority 2012, dated 2017)
# What was measured:
# [1] = system: human, dermal fibroblasts (BJ cell line); experiment: Extracellular acidification rate (glycolysis) of fibroblasts, XF Extracellular Flux Analyzer; type: cell-based
# Protocol: (§1) With regard to the fibroblasts discussed above in FIGS. 5A, 5B, SC, 5D, 5E, 6, 7A, 7B, 7C, 7D, 7E and 8 frozen, human dermal fibroblasts were obtained from the BJ cell line commercially available from ATCC, Bethesda, Md. The fibroblasts were grown to 70-80% confluence in a fibroblast culture medium of Eagle's Minimum Essential Medium (“EMEM”) supplemented with 10% fetal bovine serum (“FBS”) and gentamicin/amphotericin B ×500 solution (EMEM and FBS are available from ATCC and gentamicin/amphotericin B ×500 solution is available from Invitrogen). […] Each well included 100 μL of the fibroblast medium described above. A test medium was made from Dulbecco's Modified Eagle Medium (available from Seahorse Bioscience), 25 mM Glucose and 1 mM pyruvate. The test medium was warmed to 37° C. and the pH adjusted to 7.4. The cells were grown and plated at 37° C. and 5% CO2 air. The fibroblast medium in the wells was replaced by the test medium 1 hour prior to taking measurements. Oxygen consumption rate and extracellular acidification rate may be detected using an XF Extracellular Flux Analyzer or equivalent. The device should be capable of non-lethally and simultaneously detecting metabolic indicators of the oxphos and glycolysis pathways in a controlled environment, as well as providing […]. The cells may be provided in a multi-well plate suitable for use with the instrument (e.g., 24-well or 96 well plate) and washed prior to testing. The cells may be washed by any suitable means known in the art (e.g., using a Seahorse Biosciences XF prep station). It may be desirable to use a suitable prep station such as an XF prep station available from Seahorse Biosciences). When washing the cells, it may be desirable to remove the medium from the wells and wash the cells three times with a suitable amount of test medium (e.g., 180 μL in a 96-well plate or 600 μL in a 24-well plate). After washing the cells, a suitable amount (e.g., 180 μL) of an appropriate test medium is placed in each well, and the cells are equilibrated at 37° C. in a CO2-free incubator for 1-1.5 hours prior to taking placing the plate in the instrument for testing. Following the equilibration period, load the plate containing the cells into the instrument and equilibrate according to manufacturer's instructions. The entire test is conducted at 37° C. In some embodiments, the instrument may be to provide a three minute mix cycle, a two minute wait cycle, and a 3 minute measurement cycle for keratinocytes and a two minute mix cycle, two minute wait cycle, and 3 minute measurement cycle for fibroblasts. The cycles should be repeated for at least 88 minutes. It is to be appreciated that the cycles and times may be modified according to cell type and experiment design, as desired. The following example illustrates how the method herein can be used to identify synergistic combinations of skin care actives. Hydrogen peroxide is a well known ROS, and is used in this example to illustrate the undesirable metabolic effects associated with exposure of a cell to an oxidative stressor. The hydrogen peroxide was prepared at 10X working concentration in the fibroblast test medium described above. The test agents are niacinamide (also known as vitamin B3) and tocoquinone both commercially available from Sigma. The test agents were each prepared at 10× the final working concentration in the fibroblast test medium described above to provide a test agent solution. The stressor solution and the test agent solutions were both warmed to 37° C. and pH adjusted to 7.4. The cells are frozen, human, dermal fibroblasts obtained from ATCC (BJ cell line). The cells were cultured and prepared according to the test method described above. The fibroblasts were plated in Gelatin-coated, 96-well plate. Each well contained approximately 4×10^4 cells and 180 μL of fibroblast test medium (i.e., Seahorse Biosciences DMEM, 25 mM glucose and 1 mM pyruvate) at 37° C. and pH 7.4. […]
# [2] = system: human, dermal fibroblasts (BJ cell line); experiment: Oxygen consumption rate (oxidative phosphorylation) of fibroblasts, XF Extracellular Flux Analyzer; type: cell-based; design: Average OCR value per treatment group: unit not given here; details: for effect on reduction in OCR caused by hydrogen peroxide: in combination with 1.5 mM H2O2
# Protocol: as §1
# [3] = rate number 1, before addition of stressor/test agents (basal)
# [4] = rate number 2, before addition of stressor/test agents (basal)
# [5] = rate number 3, before addition of stressor/test agents (basal, reference)
# [6] = rate number 4, 1.5 mM hydrogen peroxide, 0.25 mM niacinamide, 0.025 mM tocoquinone
# [7] = rate number 5, 1.5 mM hydrogen peroxide, 0.25 mM niacinamide, 0.025 mM tocoquinone
# [8] = rate number 6, 1.5 mM hydrogen peroxide, 0.25 mM niacinamide, 0.025 mM tocoquinone
# [9] = rate number 7, 1.5 mM hydrogen peroxide, 0.25 mM niacinamide, 0.025 mM tocoquinone
# [10] = rate number 8, 1.5 mM hydrogen peroxide, 0.25 mM niacinamide, 0.025 mM tocoquinone
# [11] = rate number 9, 1.5 mM hydrogen peroxide, 0.25 mM niacinamide, 0.025 mM tocoquinone
# [12] = rate number 10, 1.5 mM hydrogen peroxide, 0.25 mM niacinamide, 0.025 mM tocoquinone
# [13] = rate number 11, 1.5 mM hydrogen peroxide, 0.25 mM niacinamide, 0.025 mM tocoquinone
# [14] = rate number 12, 1.5 mM hydrogen peroxide, 0.25 mM niacinamide, 0.025 mM tocoquinone
# [15] = rate number 13, 1.5 mM hydrogen peroxide, 0.25 mM niacinamide, 0.025 mM tocoquinone
# [16] = rate number 14, 1.5 mM hydrogen peroxide, 0.25 mM niacinamide, 0.025 mM tocoquinone
# [17] = rate number 15, 1.5 mM hydrogen peroxide, 0.25 mM niacinamide, 0.025 mM tocoquinone
# [18] = rate number 16, 1.5 mM hydrogen peroxide, 0.25 mM niacinamide, 0.025 mM tocoquinone
# [19] = rate number 17, 1.5 mM hydrogen peroxide, 0.25 mM niacinamide, 0.025 mM tocoquinone
# [20] = rate number 18, 1.5 mM hydrogen peroxide, 0.25 mM niacinamide, 0.025 mM tocoquinone
# [21] = 0.25 mM niacinamide, 0.025 mM tocoquinone
Structure (SMILES),"Average ECAR value per treatment group [1, 3]","Average ECAR value per treatment group [1, 4]","Average ECAR value per treatment group [1, 5]","Average ECAR value per treatment group [1, 6]","Average ECAR value per treatment group [1, 7]","Average ECAR value per treatment group [1, 8]","Average ECAR value per treatment group [1, 9]","Average ECAR value per treatment group [1, 10]","Average ECAR value per treatment group [1, 11]","Average ECAR value per treatment group [1, 12]","Average ECAR value per treatment group [1, 13]","Average ECAR value per treatment group [1, 14]","Average ECAR value per treatment group [1, 15]","Average ECAR value per treatment group [1, 16]","Average ECAR value per treatment group [1, 17]","Average ECAR value per treatment group [1, 18]","Average ECAR value per treatment group [1, 19]","Average ECAR value per treatment group [1, 20]","Average OCR value per treatment group [2, 3]","Average OCR value per treatment group [2, 4]",further results
"OO [hydrogen peroxide, reference compound]",101.82 percentage of rate 3,100.66 percentage of rate 3,100 percentage of rate 3,48.46 percentage of rate 3,29.55 percentage of rate 3,33.64 percentage of rate 3,37.41 percentage of rate 3,28.20 percentage of rate 3,17.74 percentage of rate 3,15.41 percentage of rate 3,14.87 percentage of rate 3,13.82 percentage of rate 3,13.32 percentage of rate 3,12.78 percentage of rate 3,11.82 percentage of rate 3,11.52 percentage of rate 3,11.36 percentage of rate 3,11.57 percentage of rate 3,97.05,99.80,"effect on extracellular acidification rate (glycolysis metabolism) ([1]; 1.5 mM hydrogen peroxide by itself): substantial decrease in extracellular acidification rate; effect on OCR (oxphos metabolism) ([2]; 1.5 mM H2O2 by itself): relatively sharp decrease in OCR followed by a less rapid increase; Average OCR value per treatment group [2, 5]: 100; Average OCR value per treatment group [2, 6]: −139.75; Average OCR value per treatment group [2, 7]: −4.58; Average OCR value per treatment group [2, 8]: −6.07; Average OCR value per treatment group [2, 9]: −24.10; Average OCR value per treatment group [2, 10]: −34.10; Average OCR value per treatment group [2, 11]: −44.54; Average OCR value per treatment group [2, 12]: −53.81; Average OCR value per treatment group [2, 13]: −58.25; Average OCR value per treatment group [2, 14]: −63.85; Average OCR value per treatment group [2, 15]: −70.69; Average OCR value per treatment group [2, 16]: −73.38; Average OCR value per treatment group [2, 17]: −76.46; Average OCR value per treatment group [2, 18]: −76.97; Average OCR value per treatment group [2, 19]: −76.26; Average OCR value per treatment group [2, 20]: −76.76"
NC(=O)c1cccnc1 [niacinamide],107.35 percentage of rate 3,99.41 percentage of rate 3,100 percentage of rate 3,64.35 percentage of rate 3,33.18 percentage of rate 3,34.48 percentage of rate 3,42.19 percentage of rate 3,49.60 percentage of rate 3,55.87 percentage of rate 3,60.52 percentage of rate 3,62.89 percentage of rate 3,60.57 percentage of rate 3,57.46 percentage of rate 3,55.04 percentage of rate 3,52.85 percentage of rate 3,51.52 percentage of rate 3,49.85 percentage of rate 3,47.58 percentage of rate 3,99.16,101.76,"effect on acidification rate (glycolysis metabolism) ([1]; 0.25 mM niacinamide added by itself, no hydrogen peroxide): does not significantly affect glycolysis metabolism; effect on glycolysis metabolism in combination with hydrogen peroxide ([1]; added in combination with 1.5 mM hydrogen peroxide): appears to lessen the detrimental effect of the hydrogen peroxide on glycolysis metabolism; effect on reduction in OCR caused by hydrogen peroxide [2, 21]: appears to lessen the reduction in OCR caused by the hydrogen peroxide; Average OCR value per treatment group [2, 5]: 100; Average OCR value per treatment group [2, 6]: −21.15; Average OCR value per treatment group [2, 7]: 63.31; Average OCR value per treatment group [2, 8]: 60.15; Average OCR value per treatment group [2, 9]: 47.41; Average OCR value per treatment group [2, 10]: 38.52; Average OCR value per treatment group [2, 11]: 34.85; Average OCR value per treatment group [2, 12]: 32.39; Average OCR value per treatment group [2, 13]: 31.10; Average OCR value per treatment group [2, 14]: 32.43; Average OCR value per treatment group [2, 15]: 30.49; Average OCR value per treatment group [2, 16]: 29.48; Average OCR value per treatment group [2, 17]: 28.18; Average OCR value per treatment group [2, 18]: 26.95; Average OCR value per treatment group [2, 19]: 25.83; Average OCR value per treatment group [2, 20]: 23.41"
CC1=C(C)C(=O)C(CCC(C)(O)CCCC(C)CCCC(C)CCCC(C)C)=C(C)C1=O (stereo not drawn) [tocoquinone],107.45 percentage of rate 3,99.58 percentage of rate 3,100 percentage of rate 3,56.77 percentage of rate 3,35.13 percentage of rate 3,32.57 percentage of rate 3,32.46 percentage of rate 3,34.54 percentage of rate 3,36.55 percentage of rate 3,36.68 percentage of rate 3,35.75 percentage of rate 3,32.86 percentage of rate 3,29.78 percentage of rate 3,28.15 percentage of rate 3,28.07 percentage of rate 3,30.73 percentage of rate 3,31.49 percentage of rate 3,31.18 percentage of rate 3,101.04,101.44,"effect on reduction in OCR caused by hydrogen peroxide [2, 21]: appears to lessen the reduction in OCR caused by the hydrogen peroxide about the same or slightly less than the niacinamide; Average OCR value per treatment group [2, 5]: 100; Average OCR value per treatment group [2, 6]: −21.48; Average OCR value per treatment group [2, 7]: 64.55; Average OCR value per treatment group [2, 8]: 68.43; Average OCR value per treatment group [2, 9]: 59.47; Average OCR value per treatment group [2, 10]: 53.35; Average OCR value per treatment group [2, 11]: 49.83; Average OCR value per treatment group [2, 12]: 48.18; Average OCR value per treatment group [2, 13]: 48.82; Average OCR value per treatment group [2, 14]: 49.81; Average OCR value per treatment group [2, 15]: 47.50; Average OCR value per treatment group [2, 16]: 44.97; Average OCR value per treatment group [2, 17]: 41.00; Average OCR value per treatment group [2, 18]: 37.55; Average OCR value per treatment group [2, 19]: 32.67; Average OCR value per treatment group [2, 20]: 28.15"
